Columns and labels:
Format in all cases: cell-based, mouse
[1] = system: α7 integrin (LacZ reporter in α7βgal+/− myoblasts); assay: Myoblast α7+/LacZ integrin FDG assay (Burkin assay in myoblasts, 96-well); conditions: α7+/LacZ myoblasts, 96-well
[2] = system: α7 integrin (LacZ reporter in α7+/LacZ myotubes); assay: Myotube α7 integrin FDG assay (Burkin assay in myotubes, 96-well); conditions: myotubes
[3] = system: β-galactosidase in CMV-LacZ C2C12 myotubes; assay: CMV-LacZ secondary screen in C2C12 myotubes (β-Gal stabilizing assay); conditions: C2C12 CMV-LacZ myotubes, fold relative to DMSO
Method in brief: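 Stable CMV-LacZ C2C12 clone; six-point curve 0.5–40 μM; duplicates.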

SMILES | CMV-LACZ in Myotubes, signal relative to DMSO ([3]; 5 uM) | CMV-LACZ in Myotubes, signal relative to DMSO ([3]; 10 uM) | CMV-LACZ in Myotubes, signal relative to DMSO ([3]; 20 uM) | CMV-LACZ in Myotubes, signal relative to DMSO ([3]; 40 uM) | Burkin Assay in Myoblasts, value relative to DMSO ([1]; 0.5 uM) | Burkin Assay in Myoblasts, value relative to DMSO ([1]; 1 uM) | Burkin Assay in Myoblasts, value relative to DMSO ([1]; 5 uM) | Burkin Assay in Myoblasts, value relative to DMSO ([1]; 10 uM) | Burkin Assay in Myoblasts, value relative to DMSO ([1]; 20 uM) | Burkin Assay in Myoblasts, value relative to DMSO ([1]; 40 uM) | Burkin Assay in Myotubes (signal relative to DMSO) ([2]; 0.5 uM) | Burkin Assay in Myotubes (signal relative to DMSO) ([2]; 1 uM) | Burkin Assay in Myotubes (signal relative to DMSO) ([2]; 5 uM) | Burkin Assay in Myotubes (signal relative to DMSO) ([2]; 10 uM) | Burkin Assay in Myotubes (signal relative to DMSO) ([2]; 20 uM) | Burkin Assay in Myotubes (signal relative to DMSO) ([2]; 40 uM) | also measured
COC(=O)c1ccccc1NC(=O)c1cc[n+]([O-])cc1 [MLS001167169-01] | 0.9323 | 1.009 | 1.085 | 1.103 |  |  |  |  |  |  |  |  |  |  |  |  | Burkin Assay in Myoblasts, signal relative to DMSO ([1]; 0.5 uM): 1.032; Burkin Assay in Myoblasts, signal relative to DMSO ([1]; 1 uM): 0.8858; Burkin Assay in Myoblasts, signal relative to DMSO ([1]; 5 uM): 0.9547; Burkin Assay in Myoblasts, signal relative to DMSO ([1]; 10 uM): 0.9378; Burkin Assay in Myoblasts, signal relative to DMSO ([1]; 20 uM): 0.8133; Burkin Assay in Myoblasts, signal relative to DMSO ([1]; 40 uM): 0.9062; Burkin Assay in Myotubes, α7 integrin LacZ reporter signal relative to DMSO ([2]; 0.5 uM): 0.8925; Burkin Assay in Myotubes, α7 integrin LacZ reporter signal relative to DMSO ([2]; 1 uM): 0.9375; Burkin Assay in Myotubes, α7 integrin LacZ reporter signal relative to DMSO ([2]; 5 uM): 1.041; Burkin Assay in Myotubes, α7 integrin LacZ reporter signal relative to DMSO ([2]; 10 uM): 0.9696; Burkin Assay in Myotubes, α7 integrin LacZ reporter signal relative to DMSO ([2]; 20 uM): 1.3902; Burkin Assay in Myotubes, α7 integrin LacZ reporter signal relative to DMSO ([2]; 40 uM): 0.6262
CCOc1ccc2ccccc2c1C1NC(=O)N(C)C(C)=C1C(=O)OCCOC (centres unmarked) [MLS001167424-01] | 0.7491 | 0.9718 | 1.157 | 0.9925 | 0.9904 | 1.428 | 0.8924 | 0.907 | 0.7995 | 0.8164 | 1.046 | 0.9596 | 1.365 | 0.7848 | 1.0277 | 0.9779 | 
O=Cc1ccc(C(=O)OCC(=O)N2CCCC2)cc1 [MLS001172577-01] | 0.8944 | 0.862 | 1.029 | 0.9627 | 0.996 | 0.9654 | 1.142 | 1.0758 | 1.0212 | 0.9431 | 1.122 | 1.0349 | 1.131 | 1.101 | 1.14 | 0.7324 | 
COC(=O)C(=O)C/C(=N/Nc1ncnc2ccccc12)c1ccc(Cl)cc1 [MLS001174719-01] | 0.8551 | 0.832 | 0.9254 | 1.108 | 1.053 | 1.048 | 1.013 | 0.848 | 0.7524 | 0.5265 | 1.135 | 1.001 | 1.128 | 1.034 | 0.9771 | 0.7374 | 
COc1ccccc1CNS(=O)(=O)c1ccc(Cl)s1 [MLS001175449-01] | 0.8534 | 0.9034 | 0.889 | 0.8671 | 1.0562 | 1.036 | 1.045 | 0.9949 | 1.066 | 0.7564 | 1.1188 | 1.016 | 1.156 | 0.9366 | 1.151 | 0.8041 | 
